# Test results from US9156809B2, “Carboxy ester ketals, methods of manufacture, and uses thereof” (SEGETIS, INC., priority 2012, dated 2015).
# What was measured:
# [1] = Miscibility of alkyl ketal ester with essential oil; format: physicochemical; details: room temperature
# Source text: The alkyl ketal ester and the essential oil are blended in a weight ratio of 1:1 at room temperature using gentle agitation. Solubility is visually determined immediately after mixing. Clear solutions are described as “miscible” and solutions that are either cloudy or show evidence of a second phase are labeled as “immiscible.”
# [2] = Compatibility between waxes and alkyl ketal esters; format: physicochemical
# Source text: Compatibility between various waxes and the alkyl ketal esters are first determined as detailed below. Table 13 below details the fragrant formulations for different candles that contain the fragrant composition.
# [3] = Hydrolytic stability of coalescent solvents at room temperature (pH of latex formulation); format: physicochemical; details: 1.0 g coalescent in 10 g Rhoplex SG-10M; for Initial pH: adjusted to pH 9 with ammonia, room temperature; for pH 1 week / pH 2 weeks / pH 3 weeks / pH 4 weeks: stored at room temperature
# Source text: The pH of latex formulations containing ester-functionalized coalescent solvents was monitored over time to evaluate hydrolytic stability of the coalescent solvents. Not wishing to be bound by theory, ester hydrolysis may occur at a high alkaline pH (for example a pH greater than about 9) during storage of latex compositions. The resulting hydrolysis products lower the pH of the latex composition and could decrease the coalescing efficiency of the coalescing solvent with respect to the initial amount of the coalescing solvent.
# (§1) Latex formulations were prepared by adding 1.0 gram of each coalescent solvent to 10 grams of an acrylic latex (Rhoplex SG-10M available from Dow Chemical Company) and adjusting the pH of each sample to a pH of 9 using ammonia. A control latex formulation was prepared without adding a coalescent solvent.
# [4] = Solubility of personal care or medicinal active agents in ketal; details: 50/50 mixture, room temperature
# Source text: Certified organic tea tree oil (Melaleuca alternifolia, plant sourced from Australia and extracted by steam distillation) can be purchased from Wyndmere Naturals.
# The recommended usage rate is 0.1-1%.
# The recommended usage rate is 0.01-0.05%.
# [5] = Model ethanolic sunscreen solutions, miscibility; format: physicochemical; details: by itself
# Description: Three-component mixtures of ketal, ethanol, and avobenzone are prepared by mixing the materials at various proportions at room temperature in a vial and shaking. Avobenzone by itself is immiscible in ethanol at the 5% by weight level. The ketals used are as follows: A: ketal is 2EH-LPK; Example B: ketal is 1N-LPK. Example C: ketal is 355TMH-LPK.
# Three-component mixtures of ketal, ethanol, and oxybenzone are prepared by mixing the materials at various proportions at room temperature in a vial and shaking. The ketals used are as follows: A: ketal is 2EH-LPK; Example B: ketal is 1N-LPK. Example C: ketal is 355TMH-LPK. Clear mixtures are considered to be “miscible” on this test, whereas cloudy or phase separated mixtures are considered to be “immiscible.” Oxybenzone by itself is immiscible in ethanol at the 10% by weight level.
# [6] = Hydrolytic stability of coalescent solvents at elevated temperature (45° C.); format: physicochemical; details: 1.0 g coalescent in 10 g Rhoplex SG-10M; for Initial pH: adjusted to pH 9 with ammonia, 45° C. study; for pH 1 week / pH 2 weeks: stored at 45° C.
# Description: as §1
# [7] = Relative VOC content / volatility by TGA emulating ASTM D2369; details: 110° C., nitrogen purge, 15 mg
# Description: Here, 15 milligrams (mg) of each coalescent solvent was maintained at 110° C. for one hour with a nitrogen purge in a thermogravimetric analyzer (TGA).
# [8] = with Basil (Ocimum basilicum) essential oil
# [9] = with Bergamot (Citrus bergamia) essential oil
# [10] = with Birch sweet (Betula lenta) essential oil
# [11] = with Citronella (Cymbopogon nardus) essential oil
# [12] = with Coriander seed (Coriandrum sativum) essential oil
# [13] = with Geranium (Pelargonium graveolens) essential oil
# [14] = with Lavender (Lavandula angustifolium) essential oil
# [15] = with Myrrh (Commiphora myrrha) essential oil
# [16] = with Orange (Citrus sinensis) essential oil
# [17] = with Patchouli (Pogostemon patchouli) essential oil
# [18] = with Pine needle (pinus sylvestris) essential oil
# [19] = with Vetiver (Vetivera zizanoides) essential oil
# [20] = with Ylang ylang (Canaga odorata) essential oil
# [21] = Beeswax, 50/50 weight ratio, heated to 80° C., cooled to room temperature
# [22] = Carnauba wax, 50/50 weight ratio, heated to 120° C.
# [23] = Paraffin wax, 50/50 weight ratio, heated to 80° C., cooled to room temperature
# [24] = Paraffin wax, 75/25 weight ratio, heated to 80° C., cooled to room temperature
# [25] = Stearic acid, 50/50 weight ratio, heated to 80° C., cooled to room temperature
compound,measurement,setting,value
"CCCCC(CC)COC(=O)CCC1(C)OCC(C)O1 (stereo not drawn) [2EH-LPK, 2-ethylhexyl levulinate propylene glycol ketal]",Miscibility of 50/50 blend by weight,[1]; [8],Miscible
same,Miscibility of 50/50 blend by weight,[1]; [9],Miscible
same,Miscibility of 50/50 blend by weight,[1]; [10],Miscible
same,Miscibility of 50/50 blend by weight,[1]; [11],Miscible
same,Miscibility of 50/50 blend by weight,[1]; [12],Miscible
same,Miscibility of 50/50 blend by weight,[1]; [13],Miscible
same,Miscibility of 50/50 blend by weight,[1]; [14],Miscible
same,Miscibility of 50/50 blend by weight,[1]; [15],Miscible
same,Miscibility of 50/50 blend by weight,[1]; [16],Miscible
same,Miscibility of 50/50 blend by weight,[1]; [17],Miscible
same,Miscibility of 50/50 blend by weight,[1]; [18],Miscible
same,Miscibility of 50/50 blend by weight,[1]; [19],Miscible
same,Miscibility of 50/50 blend by weight,[1]; [20],Miscible
same,Compatibility with wax upon cooling,[2]; [21],single homogenous wax layer
same,Compatibility with wax upon cooling,[2]; [22],single homogenous wax layer
same,Compatibility with wax upon cooling,[2]; [23],single homogenous wax layer
same,Compatibility with wax upon cooling,[2]; [24],single homogenous wax layer
same,Compatibility with wax upon cooling,[2]; [25],single homogenous wax layer
same,Initial pH,[3],8.97
same,pH 1 week,[3],8.99
same,pH 2 weeks,[3],8.94
same,pH 3 weeks,[3],9.03
same,pH 4 weeks,[3],9.00
same,Miscibility with tea tree oil,[4],miscible
"COc1ccc(C(=O)CC(=O)c2ccc(C(C)(C)C)cc2)cc1 [Avobenzone, avobenzone]",Miscibility in ethanol,[5]; 5% by weight level in ethanol,immiscible
"CC(C)OC(=O)CCC1(C)OCC(C)O1 (stereo not drawn) [iPrLPK, isopropyl levulinate propylene glycol ketal]",Initial pH,[3],8.93
same,pH 1 week,[3],8.79
same,pH 2 weeks,[3],8.73
same,pH 3 weeks,[3],8.71
same,pH 4 weeks,[3],8.64
"CCOC(=O)CCC1(C)OCC(C)O1 (stereo not drawn) [EtLPK, ethyl levulinate propylene glycol ketal]",Initial pH,[6],8.95
same,pH 1 week,[6],8.06
same,pH 2 weeks,[6],7.53
same,Initial pH,[3],9.00
same,pH 1 week,[3],8.69
same,pH 2 weeks,[3],8.53
same,pH 3 weeks,[3],8.41
same,pH 4 weeks,[3],8.24
"CCCCCCCCCOC(=O)CCC1(C)OCC(C)O1 (stereo not drawn) [1N-LPK, 1-nonyl levulinate propylene glycol ketal]",Initial pH,[6],8.92
same,pH 1 week,[6],8.75
same,pH 2 weeks,[6],8.63
same,Miscibility of 50/50 blend by weight,[1]; [8],Miscible
same,Miscibility of 50/50 blend by weight,[1]; [9],Miscible
same,Miscibility of 50/50 blend by weight,[1]; [10],Miscible
same,Miscibility of 50/50 blend by weight,[1]; [11],Miscible
same,Miscibility of 50/50 blend by weight,[1]; [12],Miscible
same,Miscibility of 50/50 blend by weight,[1]; [13],Miscible
same,Miscibility of 50/50 blend by weight,[1]; [14],Miscible
same,Miscibility of 50/50 blend by weight,[1]; [15],Miscible
same,Miscibility of 50/50 blend by weight,[1]; [16],Miscible
same,Miscibility of 50/50 blend by weight,[1]; [17],Miscible
same,Miscibility of 50/50 blend by weight,[1]; [18],Miscible
same,Miscibility of 50/50 blend by weight,[1]; [19],Miscible
same,Miscibility of 50/50 blend by weight,[1]; [20],Miscible
same,Compatibility with wax upon cooling,[2]; [21],single homogenous wax layer
same,Compatibility with wax upon cooling,[2]; [22],single homogenous wax layer
same,Compatibility with wax upon cooling,[2]; [23],single homogenous wax layer
same,Compatibility with wax upon cooling,[2]; [24],single homogenous wax layer
same,Compatibility with wax upon cooling,[2]; [25],single homogenous wax layer
same,Miscibility with tea tree oil,[4],miscible
"CC(CCOC(=O)CCC1(C)OCC(C)O1)CC(C)(C)C (stereo not drawn) [355TMH-LPK, 3,5,5-trimethylhexyl levulinate propylene glycol ketal]",Initial pH,[6],8.92
same,pH 1 week,[6],8.78
same,pH 2 weeks,[6],8.64
same,Miscibility of 50/50 blend by weight,[1]; [8],Miscible
same,Miscibility of 50/50 blend by weight,[1]; [9],Miscible
same,Miscibility of 50/50 blend by weight,[1]; [10],Miscible
same,Miscibility of 50/50 blend by weight,[1]; [11],Miscible
same,Miscibility of 50/50 blend by weight,[1]; [12],Miscible
same,Miscibility of 50/50 blend by weight,[1]; [13],Miscible
same,Miscibility of 50/50 blend by weight,[1]; [14],Miscible
same,Miscibility of 50/50 blend by weight,[1]; [15],Miscible
same,Miscibility of 50/50 blend by weight,[1]; [16],Miscible
same,Miscibility of 50/50 blend by weight,[1]; [17],Miscible
same,Miscibility of 50/50 blend by weight,[1]; [18],Miscible
same,Miscibility of 50/50 blend by weight,[1]; [19],Miscible
same,Miscibility of 50/50 blend by weight,[1]; [20],Miscible
same,Compatibility with wax upon cooling,[2]; [21],single homogenous wax layer
same,Compatibility with wax upon cooling,[2]; [22],single homogenous wax layer
same,Compatibility with wax upon cooling,[2]; [23],single homogenous wax layer
same,Compatibility with wax upon cooling,[2]; [24],single homogenous wax layer
same,Compatibility with wax upon cooling,[2]; [25],single homogenous wax layer
same,Miscibility with tea tree oil,[4],miscible
"2,2,4-trimethyl-1,3-pentanediol monoisobutyrate [TPM]",% mass remaining,[7]; 0 min,100%
same,% mass remaining,[7]; 5 min,74%
same,% mass remaining,[7]; 10 min,49%
same,% mass remaining,[7]; 15 min,26%
same,% mass remaining,[7]; 20 min,4%
same,% mass remaining,[7]; 30 min,0%
same,% mass remaining,[7]; 60 min,0%
"COc1ccc(C(=O)c2ccccc2)c(O)c1 [Oxybenzone, oxybenzone]",Miscibility in ethanol,[5]; 10% by weight level in ethanol,immiscible
